Data set [1] has as its system PP2A. As to the kind of experiment: PP2Ac immunoprecipitation phosphatase assay in K562 cells. Type of data set: cell-based, human. On the procedure: PP2A assay from whole cell lysates was carried out using commercial PP2Ac immunoprecipitation phosphatase assay kit (Millipore). Briefly, 200 μg protein lysates prepared as described above, 4 μg PP2Ac-specific antibody, and 40 μL protein A-agarose were added to TBS buffer (20 mM Tris-HCl, 150 mM NaCl, and 0.1% Tween 20) to a final volume of 500 μL and immunoprecipitation was carried out at 4 °C for 2 h. The immunoprecipitates were used in the phosphatase reaction following the manufacturer's protocol.

Data set [2] has as its system BaF3-p210^T315I cells. As to the kind of experiment: Survival study, intravenously injected tumor cells. The settings on record: vehicle 25.5 days. Type of data set: in vivo, BALB/c mice. On the procedure: In survival study, BaF3-p210^T315I cells were injected into the tail vein of BALB/c mice (100 μL of a 1 × 10^7 cells suspension in serum free medium). […] Moribund animals were sacrificed as per institutional and national guidelines. Survival data were analyzed by the Kaplan Meier method and compared using the log-rank test.

For data set [3], the system named is BaF3-p210^T315I tumor xenografts. As to the kind of experiment: In vivo anti-tumor efficacy, subcutaneous xenograft. Further details: species or system BALB/c mice. As to conditions: TGI1002 30, 45, 60 mg/kg; imatinib, ponatinib 10 mg/kg; i.p. daily. The protocol: BABL/c male mice from SLRC Experimental Animal Center were bred under pathogen-free conditions and were used for experiments at 6-8 weeks of age. Animal experiments were performed according to institutional and national guidelines. BaF3-p210^T315I cells were implanted subcutaneously into the right flank of nude mice (200 μL of a 1 × 10^7cells suspension in serum free medium). When tumors became large enough for caliper measurement, tumor volumes were calculated as (length × width^2) × 0.5. […] At the end of the experiments, tumors were dissected and photographed, and wet weights of each tumor were measured.

The test system of data set [4] is BCR-ABL. As to the kind of experiment: Western blot of BCR-ABL expression in K562 cells. Format: cell-based, human. The protocol:
Protein samples (40 μg) were resolved on SDS-PAGE gels, transferred onto PVDF membranes (Millipore) and incubated overnight with primary antibodies to β-tubulin, BCR-ABL, p-BCR-ABL, SET, PP2Ac and p-PP2Ac. The membranes were incubated with horseradish peroxidase (HRP)-conjugated secondary antibody for 1 h, and the bands were visualized using an ECL detection kit following the manufacturer's instructions. For immunoprecipitation, cells were lysed in 20 mM Tris-HCl (pH 7.0), 150 mM NaCl, 1 mM EDTA, 1 mM MgCl and 0.5% NP-40 supplemented with a cocktail of protease and phosphatase inhibitors (Roche). Lysates (200 μg) were incubated with primary antibodies (1 μg) against SET or PP2Ac at 4 °C for 10 h, protein A/G plus agarose beads were then added for immunoprecipitation overnight at 4 °C. After wash, the immunoprecipitated proteins were separated by SDS-PAGE and analyzed by Western blotting.
(In general: A western blot detects proteins with antibodies after separation by electrophoresis.)

Data set [5] has as its system K562 cells. As to the kind of experiment: Cytotoxicity assay (CellTiter-Glo). Format: cell-based, human. The protocol: Twenty types of tumor cell lines were seeded at 4000 cells per well in 96-well plates. […] Cell viability was measured with the CellTiter-Glo Luminescent Cell Viability Assay (Promega) according to the manufacturer's instructions. Luminescence was measured using an EnVision Multilabel Plate Reader (Perkin-Elmer). The cytotoxicity of TGI1002 was expressed as the percentage of luminescence relative to that of untreated cells.
(In general: In ATP-based viability assays light output follows the ATP content of the culture.)

Data set [6] concerns the target T1, recombinant human SET protein (Homo sapiens, UniProt Q01105).
T1 construct: Genes encoding the full length of human SET (GenBank No.: AAA60318.1) was synthesized; made in house; host or cells: E. coli (pET-21a)
As to the kind of experiment: Microscale thermophoresis (MST) binding to NT647-labeled SET. The settings on record: 15 μM NT647-labeled SET, PBS pH 8.0, 25 °C. On the procedure:
Thermophoresis analysis was performed during 30 s on a NanoTemper Monolith NT.115 instrument (20% LED, 40% MST power) at 25 °C.

Data set [7] has as its target T2, recombinant human SET protein in full length (human, UniProt Q01105-2 1-277, labeled with RED fluorescent dye NT-647-NHS).
T2 construct: human SET, full length, gene synthesized after GenBank AAA60318.1 and subcloned into pET-21a; also called SET oncoprotein; NT647-labeled SET protein
As to the kind of experiment: MST; serial dilutions of the peptide (up to 2 mM) mixed with 15 μM NT647-labeled SET protein, 10 min at room temperature, 20 mM PBS pH 8.0, 25 °C, Monolith NT.115 (20% LED, 40% MST power). The settings on record: both partners purified.

T1 sequence (Q01105 1-277 isoform Q01105-2): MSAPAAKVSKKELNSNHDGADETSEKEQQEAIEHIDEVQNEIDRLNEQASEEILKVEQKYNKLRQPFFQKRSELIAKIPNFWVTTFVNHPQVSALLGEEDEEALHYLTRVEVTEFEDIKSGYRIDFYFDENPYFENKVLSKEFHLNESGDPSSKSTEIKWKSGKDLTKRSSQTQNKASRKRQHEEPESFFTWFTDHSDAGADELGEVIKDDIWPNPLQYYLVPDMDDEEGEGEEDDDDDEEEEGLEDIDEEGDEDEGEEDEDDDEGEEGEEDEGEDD
T2 sequence (Q01105 other isoform, or with tags, fused parts or gaps): as the sequence (Q01105 1-277 isoform Q01105-2) above

On to `C=C1[C@@H](O)[C@@H]2O[C@]3(CC[C@H](/C=C/[C@@H](C)[C@@H]4CC(C)=C[C@@]5(O[C@H](C[C@@](C)(O)C(=O)O)CC[C@H]5O)O4)O3)CC[C@H]2O[C@@H]1[C@@H](O)C[C@H](C)[C@H]1O[C@@]2(CCCCO2)CC[C@H]1C` [okadaic acid, reference compound], for which the “PP2A activity compared to control” value in data set [1] was “decreased significantly”.

In turn, `Cc1ccc(C(=O)Nc2ccc(CN3CCN(C)CC3)c(C(F)(F)F)c2)cc1C#Cc1cnc2cccnn12` [ponatinib, reference compound] came in with a median survival in data set [2] of 37 days. Also, the “final tumor volume and weight compared to vehicle group” value in data set [3] is given as “markedly lower”.

For `CO[C@H]1/C=C\C=C(/C)C(=O)NC2=CC(=O)C(NCCN(C)C)=C(C[C@@H](C)C[C@H](OC)[C@H](O)[C@@H](C)/C=C(\C)[C@@H]1OC(N)=O)C2=O` [17-DMAG, reference compound], the “expression level of BCR-ABL” value in data set [4] is “significantly degraded”.

On to `Cc1ccc(NC(=O)c2cccc(CN3CCN(CC(=O)O)CC3)c2)cc1Oc1nccc(-c2cccnc2)n1` [TGI1002-COOH], for which, in data set [5], the “cytotoxicity compared to the parent compound TGI1002” value was “comparable cytotoxicity”.

Turning to `Cc1ccc(NC(=O)c2ccc(CN3CCN(C)CC3)cc2)cc1Nc1nccc(-c2cccnc2)n1` [imatinib, reference compound], the Kd value entry in data set [6] is recorded as “did not bind SET to give a meaningful Kd value”. The same molecule returned a median survival in data set [2] (10 mg/kg i.p. once daily from day 5) of 25 days.

B1: ApoE-mimetic peptide COG112 (peptide)
peptide: Ac-LRVRLASHLRKLRKRLL-NH2
notes: source: synthetic peptide (ChinaPeptides Co., Ltd, > 95% purity)
As usually defined, the Kd is the equilibrium constant for the complex coming apart. Turning to B1, the equilibrium dissociation constant (Kd) in data set [7] amounted to 4.4 ± 0.39 µM.

The record behind these values is PMC4494927, “Discovery of a small molecule targeting SET-PP2A interaction to overcome BCR-ABLT315I mutation of chronic myeloid leukemia” (Oncotarget, 2015).
